Patent publication US11731934B2, “HDAC inhibitor compounds and methods of treatment” (University of Florida Research Foundation, Inc., priority 2014, dated 2023)

Legend:
[1] = 50 mg/kg dosed orally, ref (4); cited from earlier work
[2] = test system: HCT116 cells; experiment: Western blotting of acetylated histones; type: cell-based; conditions: for Accumulation of acetylated histones: HCT116, 1 h, TSA 0.2 μM, others 2 μM (FIG. 1A); for Inhibition of cellular HDACs (H4K5ac, H3K18ac): HCT116, 0.5 μM, 24 h (FIG. 1B)
[3] = test system: HCT116 cells; experiment: H3K18ac after 6 h pulse treatment and drug washout; type: cell-based; conditions: 6 h exposure then washout
[4] = test system: HepG2 cells; experiment: Viability assay, with or without HDAC shRNA; type: cell-based; conditions: HepG2, 96 h (FIG. 4A)
[5] = test system: Ad-MLP-Luc reporter in HCT116 cell line; experiment: Ad-MLP-Luc luciferase reporter activation assay; type: cell-based; conditions: HCT116, compared to Ad-E2-Luc reporter
[6] = target: HDAC1 (Homo sapiens (Human), UniProt Q13547); experiment: In vitro HDAC1 inhibition assay of HTS hits (HDAC/II-Glo reagents); type: biochemical
Sequence of HDAC1 (Q13547 whole entry): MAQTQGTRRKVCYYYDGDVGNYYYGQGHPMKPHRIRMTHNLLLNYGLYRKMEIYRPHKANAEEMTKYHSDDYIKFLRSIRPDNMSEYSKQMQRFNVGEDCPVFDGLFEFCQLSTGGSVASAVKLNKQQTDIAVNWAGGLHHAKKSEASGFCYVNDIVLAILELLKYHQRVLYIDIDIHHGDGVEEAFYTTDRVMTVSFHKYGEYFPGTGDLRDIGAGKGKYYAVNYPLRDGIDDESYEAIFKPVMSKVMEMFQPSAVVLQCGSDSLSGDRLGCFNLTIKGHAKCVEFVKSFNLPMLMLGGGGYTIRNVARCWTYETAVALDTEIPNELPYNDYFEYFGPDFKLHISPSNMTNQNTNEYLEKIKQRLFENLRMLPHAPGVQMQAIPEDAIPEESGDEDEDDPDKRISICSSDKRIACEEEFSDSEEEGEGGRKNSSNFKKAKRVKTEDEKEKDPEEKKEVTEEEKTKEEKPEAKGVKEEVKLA

[7] = test system: HCT116 and A549 cells; experiment: Western blotting of acetylated non-histone proteins; type: cell-based; conditions: for α-tubulin acetylation: 1 h, TSA 0.2 μM, UF010 2 μM
[8] = test system: NCI-60 panel of cancer cell lines; experiment: NCI-60 panel screen; type: cell-based
[9] = test system: MDA-MB-231 cells; experiment: Cell cycle analysis by FACS; type: cell-based; conditions: 24 h, dose-dependent
[10] = test system: MDA-MB-231 cells; experiment: Microarray gene expression profiling with Ingenuity Pathway Analysis; type: cell-based; conditions: 1 μM, 24 h
[11] = test system: MDA-MB-231 cells; experiment: Quantitative real-time PCR of CDKN1A (p21); type: cell-based
[12] = Cell-based assays, comparison with entinostat
Excerpt: Chem Biol. 2015: in press.].

[13] = test system: MDA-MB-231 cells; conditions: UF010 at 1 μM

## Nc1ccccc1NC(=O)CCCCCC(=O)Nc1ccccc1 [Compound 4b]
[1]
  Tmax: 15 min

## Nc1ccccc1NC(=O)c1ccc(CNC(=O)OCc2cccnc2)cc1 [MS-275, entinostat]
[2]
  Accumulation of acetylated histones: only slightly induced acetylation at several sites but failed to induce acetylation at most sites
[3]
  Persistence of induced histone acetylation (H3K18ac) after drug addition: at least 48 h
  Time to induction of histone acetylation (H3K18ac): 18 h

## CCCCNNC(=O)c1ccccc1 [RLS2-125, N′-butylbenzohydrazide]
[4]
  Growth inhibition for HepG2: little to no growth inhibition

## CCCCNNC(=O)c1ccc(N(C)C)cc1 [RLS2-131, N′-butyl-4-(dimethylamino)benzohydrazide]
[2]
  Inhibition of cellular HDACs (H4K5ac, H3K18ac): consistently displayed potent inhibition of cellular HDACs

## C/C=C1\NC(=O)[C@H]2CSSCC/C=C/[C@H](CC(=O)N[C@H](C(C)C)C(=O)N2)OC(=O)[C@H](C(C)C)NC1=O [Romidepsin, romidepsin]
[5]
  Ad-MLP-Luc reporter activity: dramatically increased in a dose-dependent manner
[3]
  Persistence of induced histone acetylation (H3K18ac) after drug addition: up to 24 h
  Time to induction of histone acetylation (H3K18ac): quickly induced acetylation

## O=C(CCCCCCC(=O)Nc1ccccc1)NO [SAHA, vorinostat, reference compound]
[6]
  HDAC1 inhibition in vitro, potency: < 10 µM

## CC(/C=C/C(=O)NO)=C\[C@@H](C)C(=O)c1ccc(N(C)C)cc1 [TSA, Trichostatin A, reference compound]
[2]
  Accumulation of acetylated histones: strongly induced acetylation at some sites but weakly at other sites
[7]
  α-tubulin acetylation: dramatically increased α-tubulin acetylation

## CCCCNNC(=O)c1ccc(Br)cc1 [UF010, 4-bromo-N′-butylbenzohydrazide]
[6]
  HDAC1 inhibition in vitro, potency: < 10 µM
[2]
  Inhibition of cellular HDACs (H4K5ac, H3K18ac): consistently displayed potent inhibition of cellular HDACs
  Accumulation of acetylated histones: consistently induced the accumulation of acetylated histones at all sites examined
[7]; 2 μM, after exposure to etoposide 10 μM
  Accumulation of acetylated p53: induced accumulation of acetylated p53
[7]; 2 μM, with or without etoposide treatment
  p53 stabilization: notably stabilized p53
[7]
  α-tubulin acetylation: little to no effect
[3]
  Mode of HDAC inhibition (on/off): fast-on but slow-off inhibitor
  Persistence of induced histone acetylation (H3K18ac) after drug addition: up to 96 h
  Time to induction of histone acetylation (H3K18ac): ≤ 6 h
[8]
  Inhibition of proliferation, NCI-60 panel: inhibited proliferation of all tested cell lines
[9]
  Cell cycle effect: mainly blocked G1/S transition
[10]
  Predicated activation state, Biological Functions: Cell cycle, Cell cycle progression: Suppressed
  Predicated activation state, Biological Functions: Cell death and survival, Apoptosis: Activated
  Predicated activation state, Biological Functions: Cell death and survival, Cell survival: Suppressed
  Predicated activation state, Biological Functions: Cell death and survival, Necrosis: Activated
  Predicated activation state, Biological Functions: Cell growth and proliferation, Proliferation of cells: Suppressed
  Predicated activation state, Biological Functions: DNA replication, recombination and repair, Repair of DNA: Suppressed
  Predicated activation state, Biological Functions: Gene expression, Transcription of RNA: Suppressed
  Predicated activation state, Upstream Regulators: Butyric acid: Activated
  Predicated activation state, Upstream Regulators: Cisplatin: Activated
  Predicated activation state, Upstream Regulators: ERK1/2: Activated
  Predicated activation state, Upstream Regulators: HDAC1: Suppressed
  Predicated activation state, Upstream Regulators: HDAC2: Suppressed
  Predicated activation state, Upstream Regulators: KRAS: Suppressed
  Predicated activation state, Upstream Regulators: MYCN: Suppressed
  Predicated activation state, Upstream Regulators: Myc: Suppressed
  Predicated activation state, Upstream Regulators: Rb1: Activated
  Predicated activation state, Upstream Regulators: Romidepsin: Activated
  Predicated activation state, Upstream Regulators: TP53: Activated
  Predicated activation state, Upstream Regulators: Tributyrin (butyrate): Activated
  Predicated activation state, Upstream Regulators: Trichostatin A: Activated
  Predicated activation state, Upstream Regulators: fulvestrant: Activated
[11]
  CDKN1A (p21) expression by qPCR: activation of CDKNA encoding p21 was also confirmed
[12]
  Potency relative to entinostat in cell-based assays: about 5 fold
[13]
  Cell migration to the denuded areas: markedly slowed migration
